The source of these data is patent publication US11351168B1 (Celgene CAR LLC, priority 2008, dated 2022).

Assay [1] deals with BTK signaling in Ramos cells. Description: BTK Ramos cellular assay (phosphorylation of BTK substrate PLCγ2). It counts as cell-based, human. Conditions: Homo sapiens, 1 hour compound, anti-IgM stimulation, read-out: BTK Inhibition (Ramos cellular). How it is done:
Compounds I-2, I-4, and I-7 were assayed in Ramos human Burkitt lymphoma cells. Ramos cells were grown in suspension in T225 flasks, spun down, resuspended in 50 ml serum-free media and incubated for 1 hour. Compound was added to Ramos cells in serum free media to a final concentration of 1, 0.1, 0.01, or 0.001 μM. Ramos cells were incubated with compound for 1 hour, washed again and resuspended in 100 ul serum-free media. Cells were then stimulated with 1 μg of goat F(ab′)2 Anti-Human IgM and incubated on ice for 10 minutes to activate B cell receptor signaling pathways. After 10 minutes, the cells were washed once with PBS and then lysed on ice with Invitrogen Cell Extraction buffer. 16 μg total protein from lysates were loaded on gel and blots were probed for phosphorylation of the BTK substrate PLCγ2.

Assay [2] relates to BTK kinase activity (PLCγ2 phosphorylation) in Ramos cells. Description: Washout experiment with Ramos cells. In kind it is cell-based, human. Conditions: 100 nM compound for 1 hour, then washout. How it is done: Washout Experiment with Ramos Cells
Ramos cells were serum starved for one hour in RPMI media+1% glutamine at 37° C. After starvation, Ramos cells were treated with 100 nM compound diluted in serum free RPMI media for 1 hour. After compound treatment, the media was removed and cells were washed with compound-free media. Subsequently, Ramos cells were washed every 2 hours and resuspended in fresh compound-free media. Cells were collected at specified timepoints, treated with 1 ug anti-human IgM (Southern Biotech cat #2022-01) for 10 minutes on ice to induce BCR signaling and then washed in PBS. Ramos cells were then lysed in Cell Extraction Buffer (Invitrogen FNN0011) supplemented with Roche complete protease inhibitor tablets (Roche 11697498001) and phosphatase inhibitors (Roche 04 906 837 001) and 18 ug total protein lysate was loaded in each lane. Inhibition of BTK kinase activity was assayed by measuring its substrate (PLCγ2) phosphorylation by western blot with phospho-specific antibodies from Cell Signaling Technologies cat #3871. The results of this experiment with compounds I-2, I-4 and I-7 are depicted in FIGS. 1, 2 and 3.

For the molecule `C=CC(=O)Nc1cccc(Nc2nc(Nc3cccc(OC)c3)ncc2C(F)(F)F)c1` [Compound I-242, N-(3-(5-trifluoromethyl-2-(3-methoxyphenylamino)pyrimidin-4-ylamino)phenyl)acrylamide], in assay [1], the IC50 is below 10 nM. The “BTK Inhibition Type” value in assay [2] is listed as “irreversible”. The matching figures for `C#CCOc1cccc(Nc2ncc(C)c(Nc3cccc(NC(=O)C=C)c3)n2)c1` [Compound I-35, N-(3-(5-methyl-2-(3-(prop-2-ynyloxy)phenylamino)pyrimidin-4-ylamino)phenyl) acrylamide]: below 10 nM and “irreversible”.

In the case of `Cc1cnc(Nc2ccccc2)nc1Nc1cccc(NC(=O)/C=C/CN(C)C)c1` [Compound I-38, (E)-4-(dimethylamino)-N-(3-(5-methyl-2-(phenylamino)pyrimidin-4-ylamino)phenyl)but-2-enamide], in assay [1], the IC50 lay within 10 to 100 nM. Besides, the “BTK Inhibition Type” value in assay [2] was “reversible”.

`C=CC(=O)Nc1cccc(Nc2nc(Nc3ccc(OC)nc3)ncc2F)c1` [Compound I-243, N-(3-(5-fluoro-2-(6-methoxypyridin-3-ylamino)pyrimidin-4-ylamino)phenyl)acrylamide]: the IC50 in assay [1] was below 10 nM. In assay [2], the “BTK Inhibition Type” value was “irreversible”. The matching figures for `C=CC(=O)Nc1cccc(Nc2nc(Nc3ccccc3)ncc2C(N)=O)c1` [Compound I-230, 4-(3-acrylamidophenylamino)-2-(phenylamino)pyrimidine-5-carboxamide]: below 10 nM and “irreversible”. Consider `C=CC(=O)N1CCC[C@@H](Oc2nc(Nc3cccc(OC)c3)ncc2F)C1` [Compound I-190, (R)-1-(3-(5-fluoro-2-(3-methoxyphenylamino)pyrimidin-4-yloxy)piperidin-1-yl)prop-2-en-1-one], for which, in assay [1], the IC50 fell in the range of 10 to 100 nM. In the case of `C=CC(=O)N1CCOc2ccc(Nc3nc(Nc4ccc(N5CCCC5=O)cc4)ncc3C(C)=O)cc21` [Compound I-152, 1-{4-[5-Acetyl-4-(4-acryloyl-3,4-dihydro-2H-benzo[1,4]oxazin-6-ylamino)-pyrimidin-2-ylamino]-phenyl}-pyrrolidin-2-one], the IC50 in assay [1] lay within 10 to 100 nM.

For the molecule `C=CC(=O)Nc1cccc(Nc2nc(Nc3ccc(OC4CCC4)nc3)ncc2F)c1` [Compound I-79, N-(3-(2-(6-cyclobutoxypyridin-3-ylamino)-5-fluoropyrimidin-4-ylamino)phenyl)acrylamide], the IC50 in assay [1] is below 10 nM. Take `C=CC(=O)Nc1cccc(Oc2nc(Nc3ccccc3)ncc2C)c1` [Compound I-248, N-(3-(5-methyl-2-(phenylamino)pyrimidin-4-yloxy)phenyl)acrylamide]: the IC50 in assay [1] was below 10 nM. Further, the “BTK Inhibition Type” value in assay [2] is listed as “irreversible”. `C=CC(=O)Nc1cccc(Oc2nc(Nc3ccc(OCCOC)cc3)ncc2C2CC2)c1` [Compound I-131, N-(3-(5-cyclopropyl-2-(4-(2-methoxyethoxy)phenylamino)pyrimidin-4-yloxy)phenyl)acrylamide]: the IC50 in assay [1] is below 10 nM. Still for that read-out and setting: the figure for `C=CC(=O)N1CCOc2ccc(Nc3nc(Nc4ccc(N5CCOCC5)nc4)ncc3C(C)=O)cc21` [Compound I-168, 1-{6-[5-Acetyl-2-(6-morpholin-4-yl-pyridin-3-ylamino)-pyrimidin-4-ylamino]-2,3-dihydro-benzo[1,4]oxazin-4-yl}-propenone] is 10 to 100 nM.

Turning to `C=CC(=O)Nc1cccc(Nc2nc(Nc3cccc(OC)c3)ncc2OC)c1` [Compound I-158, N-(3-(5-methoxy-2-(3-methoxyphenylamino)pyrimidin-4-ylamino)phenyl)acrylamide], the IC50 in assay [1] lay in the range of 10 to 100 nM. Same read-out and setting: the figure for `C=CC(=O)Nc1cccc(Nc2nc(Nc3ccc4c(c3)NCCO4)ncc2F)c1` [Compound I-174] is below 10 nM. `C=CC(=O)Nc1cccc(Nc2nc(Nc3ccccc3)ncc2F)c1` [Compound I-28, N-(3-(5-fluoro-2-(phenylamino)pyrimidin-4-ylamino)phenyl)acrylamide]: in assay [2], the “BTK Inhibition Type” value is on record as “irreversible”. With `C=CC(=O)Nc1cccc(Oc2nc(Nc3cccc(OC)c3)ncc2C(N)=O)c1` [Compound I-178, 4-(3-acrylamidophenoxy)-2-(3-methoxyphenylamino)pyrimidine-5-carboxylic acid amide], in assay [1], the IC50 lay within 10 to 100 nM.

Consider `COc1ccc(Nc2ncc(F)c(Nc3cccc(NC(=O)/C=C/CN(C)C)c3)n2)cn1` [Compound I-125, (E)-4-(dimethylamino)-N-(3-(5-fluoro-2-(6-methoxypyridin-3-ylamino)pyrimidin-4-ylamino)phenyl)but-2-enamide], for which, in assay [1], the IC50 was 10 to 100 nM. Still for that read-out and setting: the figure for `C=CC(=O)Nc1cccc(Nc2nc(Nc3ccc(OC)nc3)ncc2C(C)=O)c1` [Compound I-189, N-{3-[5-Acetyl-2-(6-methoxy-pyridin-3-ylamino)-pyrimidin-4-ylamino]-phenyl}-acrylamide] is 10 to 100 nM; for `C=CC(=O)Nc1cccc(Nc2nc(Nc3ccc(OCC4CCN(C)CC4)nc3)ncc2F)c1` [Compound I-78, N-(3-(5-fluoro-2-(6-((1-methylpiperidin-4-yl)methoxy)pyridin-3-ylamino)pyrimidin-4-ylamino)phenyl)acrylamide] it is below 10 nM. Same read-out and setting: as for `C=CC(=O)N1CCOc2ccc(Nc3nc(Nc4ccc5c(c4)CC(=O)N5)ncc3C(C)=O)cc21` [Compound I-129, 5-[5-Acetyl-4-(4-acryloyl-3,4-dihydro-2H-benzo[1,4]oxazin-6-ylamino)-pyrimidin-2-ylamino]-1,3-dihydro-indol-2-one], the figure is below 10 nM; as for `C=CC(=O)Nc1cccc(Nc2nc(Nc3cc(OC)c(OC)c(OC)c3)ncc2F)c1` [Compound I-133, 4-(3-acrylamidophenylamino)-5-fluoro-2-(3,4,5-trimethoxyphenylamino)-pyrimidine], 10 to 100 nM. Turning to `C=CC(=O)N1CCC[C@@H](Nc2nc(Nc3cccc(OCCN4CCOCC4)c3)ncc2F)C1` [Compound I-135, (R)-1-(3-(5-fluoro-2-(3-(2-morpholinoethoxy)phenylamino)pyrimidin-4-ylamino)piperidin-1-yl)prop-2-en-1-one], the IC50 in assay [1] was in the range of 10 to 100 nM. For the molecule `C=CC(=O)Nc1cccc(Nc2nc(Nc3cccc(OCCCNC(=O)OC(C)(C)C)c3)ncc2C)c1` [Compound I-45, tert-butyl 3-(3-(4-(3-acrylamidophenylamino)-5-methylpyrimidin-2-ylamino)phenoxy)propylcarbamate], the IC50 in assay [1] was below 10 nM. With `[2H]C([2H])([2H])Oc1ccc(Nc2ncc(F)c(Nc3cccc(NC(=O)C=C)c3)n2)cn1` [Compound I-95, N-(3-(5-fluoro-2-(6-(trideutereomethoxy)pyridine-3-ylamino)pyrimidin-4-ylamino)phenyl)acrylamide], the IC50 in assay [1] was below 10 nM. As for `C=CC(=O)Nc1cccc(Nc2nc(Nc3ccc(F)cc3)ncc2F)c1` [Compound I-247, N-(3-(5-fluoro-2-(4-fluorophenylamino)pyrimidin-4-ylamino)phenyl)acrylamide], the IC50 in assay [1] is below 10 nM. The “BTK Inhibition Type” value in assay [2] was “irreversible”. For `C=CC(=O)Nc1cccc(Oc2nc(Nc3ccc(OC)nc3)ncc2C(=O)NC2CC2)c1` [Compound I-176, 4-(3-acrylamidophenoxy)-2-(6-methoxypyridin-3-ylamino)-pyrimidine-5-carboxylic acid cyclopropylamide], in assay [1], the IC50 is 100 to 1000 nM. Same read-out and setting: the figure for `C=CC(=O)Nc1cccc(Nc2nc(Nc3ccc(OC)c(OC)c3)ncc2F)c1` [Compound I-134, 4-(3acrylamidophenylamino)-5-fluoro-2-(3,4-dimethoxyphenylamino)-pyrimidine] is 10 to 100 nM; for `C=CC(=O)Nc1cccc(Nc2nc(Nc3ccc(OCC(C)(C)O)nc3)ncc2F)c1` [Compound I-313, N-(3-(5-fluoro-2-(6-(2-hydroxy-2-methylpropoxy)pyridin-3-ylamino)pyrimidin-4-ylamino)phenyl)acrylamide] it is below 10 nM. Turning to `C=CC(=O)Nc1cccc(Nc2nc(Nc3ccc4c(c3)N(S(C)(=O)=O)CCO4)ncc2F)c1` [Compound I-140, N-(3-(2-(4-methylsulfonyl-2,3-dihydrobenzo[1,4]oxazin-6-yl)amino-5-fluoropyrimidin-4-ylamino)phenyl)acrylamide], the IC50 in assay [1] lay within 10 to 100 nM.

Take `C=CC(=O)N1CCCC(Nc2nc(Nc3ccccc3)ncc2C)C1` (centres unmarked) [Compound I-27]: in assay [1], the IC50 fell in the range of 10 to 100 nM. As for `C=CC(=O)N1CCC[C@@H](Nc2nc(Nc3ccc(OC)nc3)ncc2F)C1` [Compound I-202, (R)-1-(3-(5-fluoro-2-(6-methoxypyridin-3-ylamino)pyrimidin-4-ylamino)piperidin-1-yl)prop-2-en-1-one], the IC50 in assay [1] fell in the range of 100 to 1000 nM.

With `C=CC(=O)N1CCOc2ccc(Nc3nc(Nc4ccc(OC)nc4)ncc3C(C)=O)cc21` [Compound I-170, 1-{6-[5-Acetyl-2-(6-methoxy-pyridin-3-ylamino)-pyrimidin-4-ylamino]-2,3-dihydro-benzo[1,4]oxazin-4-yl}-propenone], the IC50 in assay [1] lay in the range of 10 to 100 nM.
